Data from ChEMBL document CHEMBL1158101, “Protein tyrosine phosphatase-1B inhibitory activity of isoprenylated flavonoids isolated from Erythrina mildbraedii” (J Nat Prod, 2006).

Molecular target: T1, Tyrosine-protein phosphatase non-receptor type 1 (Homo sapiens, UniProt P18031)
T1 sequence (P18031 whole entry): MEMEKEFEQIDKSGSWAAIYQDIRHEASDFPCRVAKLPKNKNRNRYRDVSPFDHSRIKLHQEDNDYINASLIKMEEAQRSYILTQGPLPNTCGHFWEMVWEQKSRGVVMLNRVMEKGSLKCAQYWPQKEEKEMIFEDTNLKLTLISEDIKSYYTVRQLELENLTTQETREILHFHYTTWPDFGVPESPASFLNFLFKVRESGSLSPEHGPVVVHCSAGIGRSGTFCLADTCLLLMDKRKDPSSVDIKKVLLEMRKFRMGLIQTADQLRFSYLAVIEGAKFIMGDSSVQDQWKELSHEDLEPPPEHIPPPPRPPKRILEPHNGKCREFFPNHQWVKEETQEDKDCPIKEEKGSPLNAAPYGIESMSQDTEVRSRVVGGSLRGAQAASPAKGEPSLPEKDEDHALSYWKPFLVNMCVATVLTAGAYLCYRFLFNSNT
Assay: Inhibition of human recombinant PTP1B

SMILES | IC50 [µM]
O=C1C[C@@H](c2ccc(O)cc2)Oc2cc(O)ccc21 [LIQUIRTIGENIN] | > 60
CC(C)=CCc1cc([C@@H]2CC(=O)c3ccc(O)cc3O2)cc(CC=C(C)C)c1O [ABYSSINONE IV] | 16
CC1(C)C=Cc2c(cc3occ(-c4ccc(O)cc4)c(=O)c3c2O)O1 [ALPINUMISOFLAVONE] | 41.5
COc1c(CC=C(C)C)cc([C@@H]2CC(=O)c3ccc(O)cc3O2)cc1CC=C(C)C | 21.2
C[C@@H]1O[C@@H](O[C@H]2[C@H](Oc3cc(O)c4c(c3)O[C@H](c3ccc(O)cc3)CC4=O)O[C@H](CO)[C@@H](O)[C@@H]2O)[C@H](O)[C@H](O)[C@H]1O [NARINGIN] | > 60
COc1cc(OC)c2c(=O)c(-c3ccc(O)cc3)coc2c1 | > 60
COc1c(CC=C(C)C)cc(/C=C/C(=O)c2ccc(O)cc2O)cc1CC=C(C)C | 14.8
COc1c(CC=C(C)C)cc([C@@H]2CC(=O)c3c(O)cc(O)cc3O2)cc1CC=C(C)C | 26.3
COc1ccc(/C=C/C(=O)c2ccc(O)cc2O)cc1 | > 60
COc1c(/C=C/C(C)(C)O)cc([C@@H]2CC(=O)c3ccc(O)cc3O2)cc1CC=C(C)C | > 60
O=C(/C=C/c1ccc(O)cc1)c1ccc(O)cc1O [ISOLIQUIRITIGENIN] | > 60
CC(C)=CCc1cc([C@@H]2CC(=O)c3c(O)cc(O)cc3O2)cc(CC=C(C)C)c1O [ABYSSINONE V] | 39.7
CC(C)=CCc1cc([C@@H]2CC(=O)c3c(O)cc(O)cc3O2)cc2c1OC(C)(C)C=C2 [SIGMOIDIN E] | 39.2
